Measurements from patent publication US5041653A, “Substituted benzamide radiosensitizers” (SRI International, priority 1990, dated 1991).

Columns and labels:
[1] = tested on: EMT6 tumors; experiment: In vivo assay for radiosensitization activity (EMT6 tumors in female BALB/c mice, survival of dissected and cultured tumor cells, compared with MIS); set-up: key to Radiosensitization (score 0 to 4 vs MIS): 0: No radiosensitization; 1: Minimal radiosensitization (some radiosensitization relative to controls but lowest survival>3×lowest survival with MIS); 2: Moderate radiosensitization (not good as MIS, but lowest surviving fraction<3×lowest surviving fraction with MIS); 3: Good radiosensitization (equal to MIS); 4: Excellent radiosensitization (superior to MIS); details: for sensitizer enhancement ratio: at a 1-2 mM concentration, comparable to that for MIS; for Radiosensitization (score 0 to 4 vs MIS): EMT6 tumors, BALB/c mice, 5 mmole/kg or 2/3 of LD50 ip, 2,000 rad at 5 min to 2 hr after injection
Procedure: The compounds of the invention are tested in vivo for radiosensitization activity by the assay of Brown, J. M., Radiation Res (1975) 64:633-47, incorporated herein by reference. For this assay EMT6 tumors in female BALB/c mice weighing 20-25 g are used. These mice are bred under specific pathogen-free conditions and are 3-4 months old at the beginning of each experiment. The EMT6 tumor is grown intradermally in the flank from an inoculation of 2×10^5 tumor cells taken from the 2nd-8th in vitro passage of the tumor cells since removal from the previous in vivo tumor. Two tumors per mouse are implanted, and are used as subject tumors when they reach a volume of approximately […]. At this point the tumors contain approximately 20% hypoxic cells.
Test compounds are compared against MIS in this assay. The test compound is tested at a fixed injected dose of either 5 mmole/kg or 2/3 of the LD50 (whichever is lower), MIS is injected into controls at the same dose. Additional suitable controls of test compound-injected but non-irradiated and saline-injected and irradiated mice are also included. A fixed radiation dose of 2,000 rad is applied at variable intervals of 5 min to 2 hr between injection and irradiation. Typically, irradiation is applied at 5, 10, 15, 20, 30, 45, 60, 90, and 120 min following intraperitoneal administration of both drugs. By using these intervals, the results give an indication of both the optimum time to irradiate and of how the test compound sensitizes in relationship to MIS.
Irradiation of the EMT6 tumors is done by irradiating nonanesthetized tumor-bearing mice in a Plexiglas box. Irradiation conditions are 250 kVp X-rays, 15 mA, FSC 33 cm, added filtration of 0.35 mm Cu, half value layer 1.3 mm Cu, and a dose rate of 317 rad/min.
Radiosensitization activity is judged by survival rate of dissected and cultured tumor cells as follows: The tumor-bearing mice are killed immediately after irradiation, and tumors dissected from the skin, cut into several pieces, and made into a fine brei by high-speed chopping with a razor blade attached to a jigsaw. The brei is added to 30 ml of Hank's buffered salt solution (HBSS) containing 0.02% DNase, 0.05% promase, and 0.02% collagenase. The suspension is stirred for 30 min at 37° C., filtered, and centrifuged at 1,600 rmp for 10 min at 4° C. The cell pellet is resuspended in complete Waymouth's medium plus 121/2% horse serum plus 2-12% fetal calf serum (FCS) and an aliquot mixed with trypan blue and counted with the use of a hemacytometer. Suitable dilutions of this […] plated into 60- or 100-mm polystyrene petri dishes (Lux Scientific Corp) in 5 or 15 ml of medium. After incubation for 13 days, the colonies are fixed and stained, and those containing 50 cells or more are counted. The dilution yielding an average count of 25-100 colonies in a 60 mm dish is used in calculation of results.
The test compound is scored on the scale of 0 to 4 based on how it compares with MIS. The scoring system is:
1: Minimal radiosensitization (some radiosensitization relative to controls but lowest survival>3×lowest survival with MIS)
2: Moderate radiosensitization (not good as MIS, but lowest surviving fraction<3×lowest surviving fraction with MIS)
3: Good radiosensitization (equal to MIS)

[2] = Cytotoxicity test (% cell survival, hypoxic HA-1 cells); format: cell-based, Chinese hamster; details: chinese hamster, ha-1 cells, hypoxic, 10 mM test compound, 1 hr at 22° C., hypoxia (N2 containing 5% CO2)
Procedure: (§1) Cytotoxicity tests were also carried out on each of the compounds. The test procedure was as follows: Log-phase Chinese hamster ovary HA-1 cells were trypsinized (0.5% trypsin in Hank's buffered salt solution (HBSS)) and plated in 60 mm Permanox petri dishes in concentrations necessary to yield approximately 30 colonies after experimental treatment. The cells were allowed to attach overnight. Then the medium was removed from each dish and replaced with 2 ml of medium containing varying concentrations of the test compound. The petri dishes were then placed in nylon chamber fitted with gassing ports and, to achieve hypx=oxia, were gassed at room temperature with humidified N2 containing 5% CO2 for 1 hr at a rate of 1 l/min. The cells are then exposed to 10 mM of the test compound for 1 hr at 22° C. The % cell survival is read after such treatment.

[3] = tested on: Chinese hamster ovary HA-1 cells; experiment: as above; format: cell-based; details: 10 mM test compound, 1 hr at 22° C., hypoxia (N2 containing 5% CO2), 60 min, 10000 µM
Procedure: as §1

Structure (SMILES) | sensitizer enhancement ratio [1] | Radiosensitization (score 0 to 4 vs MIS) [1] | viability at 1 h, 10000 µM [2] | Cytotoxicity % Cell Survival [3]
CC(=O)OCCOc1cccc(C(N)=O)c1 [3-(2-acetoylethoxy)benzamide, 3-(2-Acetoxyethoxy)benzamide] | 1.6 |  |  | 
NC(=O)c1cccc(OCCO)c1 [3-(2-hydroxyethoxy)benzamide] | 1.6 | 3 | 89% | 
NC(=O)c1cccc(O)c1 [3-hydroxybenzamide] | 1.6 | 3 | 90% | 77%
